Assays:
PTPN2 (i.e., TC-PTP) = target: T1, PTPN2 (i.e., TC-PTP) (Homo sapiens, UniProt P17706); assay: Phosphatase activity assay (DiFMUP substrate), PTPN2; format: biochemical; conditions: compounds binned ≤1 uM or >1 uM
T1 sequence (P17706 1-415): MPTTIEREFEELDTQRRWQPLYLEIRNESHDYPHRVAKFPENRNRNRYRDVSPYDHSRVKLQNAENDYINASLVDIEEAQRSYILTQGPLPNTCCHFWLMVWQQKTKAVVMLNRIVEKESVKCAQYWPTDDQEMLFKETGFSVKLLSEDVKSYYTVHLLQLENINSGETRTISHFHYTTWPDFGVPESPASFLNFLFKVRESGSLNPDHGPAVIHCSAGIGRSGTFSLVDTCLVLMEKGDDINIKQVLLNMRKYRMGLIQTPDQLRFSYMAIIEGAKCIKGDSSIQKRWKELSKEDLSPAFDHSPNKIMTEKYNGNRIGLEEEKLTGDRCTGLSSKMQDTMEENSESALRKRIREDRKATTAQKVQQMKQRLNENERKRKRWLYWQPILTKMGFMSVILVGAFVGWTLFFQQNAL
Summary of the method: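 Read-out is continuous fluorescence of DiFMU (360 nm excitation, 450 nm emission) over about 15-30 minutes, with DiFMUP substrate at the enzyme's independently determined Km (PTPN2 approx. 45 μM final). Buffer: 50 mM HEPES pH 7.5, 150 mM NaCl, 0.5 mM EDTA, 1 mM DTT, 0.001% Tween-20, room temperature; initial rates versus 10-point dilution fitted for IC50, at least duplicate.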

PTPN1 (i.e., PTP1B) = target: T2, PTPN1 (i.e., PTP1B) (Homo sapiens, UniProt P18031); assay: Phosphatase activity assay (DiFMUP substrate), PTP1B; format: biochemical; conditions: compounds binned ≤1 uM or >1 uM
T2 sequence (P18031 1-435): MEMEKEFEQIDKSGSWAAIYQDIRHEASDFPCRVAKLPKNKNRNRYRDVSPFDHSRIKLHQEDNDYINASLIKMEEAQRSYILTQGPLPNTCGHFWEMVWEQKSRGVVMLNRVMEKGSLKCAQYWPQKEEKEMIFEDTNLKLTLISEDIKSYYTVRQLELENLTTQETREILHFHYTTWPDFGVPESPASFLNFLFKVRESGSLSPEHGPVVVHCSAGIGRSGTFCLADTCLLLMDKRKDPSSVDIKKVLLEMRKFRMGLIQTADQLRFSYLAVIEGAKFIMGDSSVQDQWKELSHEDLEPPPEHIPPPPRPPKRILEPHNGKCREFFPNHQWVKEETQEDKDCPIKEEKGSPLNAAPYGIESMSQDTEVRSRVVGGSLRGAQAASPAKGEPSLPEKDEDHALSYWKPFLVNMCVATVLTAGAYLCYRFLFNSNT
Summary of the method: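 First, serially diluted inhibitor is mixed about 2 minutes with enzyme in pH 7.5 HEPES/NaCl/EDTA/DTT/Tween-20 buffer. Next, DiFMUP is added at the enzyme's Km, approximately 45 μM for PTPN2. Finally, DiFMU appearance is read continuously at room temperature and rates are fitted for IC50.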

Row | Structure (SMILES) | IC50 (PTPN2 (i.e., TC-PTP)) [nM] | IC50 (PTPN1 (i.e., PTP1B)) [nM]
1 | Cc1ncc(-c2ccc(O)c(N3CC(=O)NS3(=O)=O)c2F)o1 [Compound 101, 5-(2-fluoro-6-hydroxy-3-(2-methyloxazol-5-yl)phenyl)-1,2,5-thiadiazolidin-3-one 1,1-dioxide] | ≤ 1000 | ≤ 1000
2 | COc1ccc(-c2ccc(O)c(N3CC(=O)NS3(=O)=O)c2F)cn1 [Compound 213, 5-(2-fluoro-6-hydroxy-3-(6-methoxypyridin-3-yl)phenyl)-1,2,5-thiadiazolidin-3-one 1,1-dioxide] | ≤ 1000 | ≤ 1000
3 | N#C[C@H]1CC[C@H](n2cnc(-c3ccc(O)c(N4CC(=O)NS4(=O)=O)c3F)c2)CC1 [Compound 250, (1r,4r)-4-(4-(3-(1,1-dioxido-4-oxo-1,2,5-thiadiazolidin-2-yl)-2-fluoro-4-hydroxyphenyl)-1H-imidazol-1-yl)cyclohexane-1-carbonitrile] | > 1000 | ≤ 1000
4 | CC(C)CCn1cnc(-c2ccc(O)c(C3CC(=O)NS3(=O)=O)c2F)c1 (stereo not drawn) [Compound 246, 5-(2-fluoro-6-hydroxy-3-(1-isopentyl-1H-imidazol-4-yl)phenyl)isothiazolidin-3-one 1,1-dioxide] | > 1000 | > 1000
5 | Cn1nc(-c2ccc(O)c(N3CC(=O)NS3(=O)=O)c2F)cc1O [Compound 479, 5-(2-fluoro-6-hydroxy-3-(5-hydroxy-1-methyl-1H-pyrazol-3-yl)phenyl)-1,2,5-thiadiazolidin-3-one 1,1-dioxide] | ≤ 1000 | ≤ 1000
6 | O=C1CN(c2c(O)ccc(C3CCC(NS(=O)(=O)C4CC4)CC3)c2F)S(=O)(=O)N1 (stereo not drawn) [Compound 450, N-(4-(3-(1,1-dioxido-4-oxo-1,2,5-thiadiazolidin-2-yl)-2-fluoro-4-hydroxyphenyl)cyclohexyl)cyclopropanesulfonamide] | ≤ 1000 | ≤ 1000

— patent publication US20240398828A1, “HETERO-ATOM CONTAINING COMPOUNDS AND USES THEREOF” (Kumquat Biosciences Inc., priority 2021, published 2024)
